Like-named read-outs stand apart in the source and are kept apart here.
Key:
[1] = target: GSK3b (GST-full length GSK3b) (Homo sapiens (Human), UniProt P49841); assay: GSK3b TR-FRET kinase assay; assay type: biochemical
Procedure, shortened: (§1)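 Readout: anti-pSer641 Tb antibody/streptavidin-d2 signal after 60 min, expressed as 665/615 ratio and fitted versus log concentration for IC50. Enzyme: 1 nM GST-GSK3 (α or β), compound-preincubated 30 min. Conditions: pH 7.5 Tris buffer with MgCl2, DTT, BSA; ATP at 4 or 2 μM, or 1 mM; 100 min.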

[2] = target: GSK3α (GST-full length GSK3α) (Homo sapiens (Human), UniProt P49840); assay: GSK3α TR-FRET kinase assay; assay type: biochemical
GSK3α (GST-full length GSK3α), sequence (P49840 whole entry): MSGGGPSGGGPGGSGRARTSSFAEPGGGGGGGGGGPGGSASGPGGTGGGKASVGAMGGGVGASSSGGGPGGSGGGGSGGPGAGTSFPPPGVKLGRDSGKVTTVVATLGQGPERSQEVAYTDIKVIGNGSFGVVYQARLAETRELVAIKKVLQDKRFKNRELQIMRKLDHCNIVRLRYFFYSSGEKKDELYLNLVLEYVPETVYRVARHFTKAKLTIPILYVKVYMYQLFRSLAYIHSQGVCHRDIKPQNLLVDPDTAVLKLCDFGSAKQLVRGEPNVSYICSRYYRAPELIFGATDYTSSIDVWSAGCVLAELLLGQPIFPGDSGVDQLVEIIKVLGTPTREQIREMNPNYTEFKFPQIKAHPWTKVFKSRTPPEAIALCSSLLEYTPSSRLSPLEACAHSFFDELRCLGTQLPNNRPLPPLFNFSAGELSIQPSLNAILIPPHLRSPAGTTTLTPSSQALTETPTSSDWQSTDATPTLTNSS
Procedure, shortened: as §1

[3] = 1 nM GSK3b, 2 μM ATP, 30 minute preincubation, Table 16, read-out: GSK3-B TR-FRET BIOCHEMICAL (TR-FRET), IC50
[4] = 1 nM GSK3α, 4 μM ATP, 30 minute preincubation, Table 16, read-out: GSK3-A TR-FRET BIOCHEMICAL (TR-FRET), IC50
[5] = read-out: GSK3-B (TR-FRET 1 mM ATP), GMean, IC50, 1 mM ATP, geometric mean
[6] = read-out: GSK3-A (TR-FRET 1 mM ATP), GMean, IC50, 1 mM ATP, geometric mean
[7] = 1 nM GSK3b, 2 μM ATP, 30 minute preincubation, geometric mean, read-out: GSK3-B TR-FRET BIOCHEMICAL (TR-FRET), GMean, IC50
[8] = 1 nM GSK3α, 4 μM ATP, 30 minute preincubation, geometric mean, read-out: GSK3-A TR-FRET BIOCHEMICAL (TR-FRET), GMean, IC50
[9] = 1 nM GSK3b, 2 μM ATP, 30 minute preincubation, Table 16, read-out: GSK3-B TR-FRET BIOCHEMICAL (TR-FRET)
[10] = 1 nM GSK3α, 4 μM ATP, 30 minute preincubation, Table 16, read-out: GSK3-A TR-FRET BIOCHEMICAL (TR-FRET)
[11] = 1 nM GSK3b, 2 μM ATP, 30 minute preincubation, read-out: GSK3-B TR-FRET BIOCHEMICAL (TR-FRET), IC50
[12] = 1 nM GSK3α, 4 μM ATP, 30 minute preincubation, read-out: GSK3-A TR-FRET BIOCHEMICAL (TR-FRET), IC50

GSK3b (GST-full length GSK3b), sequence (P49841 whole entry): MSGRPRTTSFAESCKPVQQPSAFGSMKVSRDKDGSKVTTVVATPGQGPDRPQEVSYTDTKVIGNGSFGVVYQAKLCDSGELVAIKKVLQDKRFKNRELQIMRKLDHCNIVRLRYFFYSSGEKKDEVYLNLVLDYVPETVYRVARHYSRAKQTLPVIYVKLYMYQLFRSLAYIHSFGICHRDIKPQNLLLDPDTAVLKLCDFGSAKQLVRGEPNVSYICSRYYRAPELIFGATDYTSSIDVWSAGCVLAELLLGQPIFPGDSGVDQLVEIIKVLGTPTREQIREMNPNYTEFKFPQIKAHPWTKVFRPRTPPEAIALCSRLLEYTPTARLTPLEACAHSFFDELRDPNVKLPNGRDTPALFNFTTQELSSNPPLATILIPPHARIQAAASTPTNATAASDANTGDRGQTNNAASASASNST

Compound	IC50 [1, 3]	IC50 [2, 4]	IC50 [1, 7]	IC50 [2, 8]	also measured
CC[C@@]1(c2cccc(C(F)(F)F)c2)C2=C(CC(C)(C)NC2=O)Nc2n[nH]c(F)c21 [Compound 957497]	> 5000 nM	> 5000 nM	–	–	–
CC[C@]1(c2cccc(C3CC3)c2)C2=C(CC(C)(C)NC2=O)Nc2n[nH]cc21 [Compound 950828]	100 to 1000 nM	≤ 100 nM	–	–	IC50 [1, 5]: > 5000 nM; IC50 [2, 6]: 1000 to 5000 nM
CCC1(c2cccc(N(C)c3cnccn3)c2)C2=C(CC(C)(C)CC2=O)Nc2n[nH]cc21 (centres unmarked) [Compound 902971]	≤ 100 nM	≤ 100 nM	–	–	–
CCC1(c2cccc(-c3ccnc4c3CCC4)c2)C2=C(CC(C)(C)NC2=O)Nc2n[nH]cc21 (centres unmarked) [Compound 948308]	–	–	> 5000 nM	> 5000 nM	–
CCC1(c2cccc(-c3ccncc3F)c2)C2=C(CC(C)(C)NC2=O)Nc2n[nH]cc21 (centres unmarked) [Compound 947874]	–	–	1000 to 5000 nM	100 to 1000 nM	–
Cn1cc(S(=O)(=O)N2CCC3(CC2)C2=C(CC(C)(C)CC2=O)Nc2n[nH]cc23)nn1 [Compound 947898]	–	–	–	–	IC50 [1, 9]: 100 to 1000 nM; IC50 [2, 10]: ≤ 100 nM
CCC1(c2cccc(-c3ccnc(OC)c3)c2)C2=C(CC(C)(C)CC2=O)Nc2n[nH]c(C)c21 (centres unmarked) [Compound 913053]	≤ 100 nM	≤ 100 nM	–	–	–
CCC1(c2cccc(-c3ccncc3C)c2)C2=C(CC(C)(COC)NC2=O)Nc2n[nH]cc21 (centres unmarked) [Compound 948147]	–	–	≤ 100 nM	≤ 100 nM	–
O=C1CC2(CCOC2)CC2=C1C1(CCOCC1)c1c[nH]nc1N2 (centres unmarked) [Compound 889573]	100 to 1000 nM	≤ 100 nM	–	–	–
CC[C@]1(c2cccc(-c3ccnc(C(F)F)c3)c2)C2=C(CC(C)(C)CC2=O)Nc2n[nH]cc21 [Compound 943919]	–	–	–	–	IC50 [1, 9]: 100 to 1000 nM; IC50 [2, 10]: ≤ 100 nM
CC[C@@]1(c2cccc(-c3ccnc(C)c3)c2)C2=C(CC(C)(C)NC2=O)Nc2n[nH]c(F)c21 [Compound 949012]	–	–	100 to 1000 nM	≤ 100 nM	–
CCC1(c2cccc(C(F)(F)F)c2)C2=C(CC3(CCNC3=O)CC2=O)Nc2n[nH]cc21 (centres unmarked) [Compound 950331]	–	–	–	–	IC50 [1, 9]: > 5000 nM; IC50 [2, 10]: 100 to 1000 nM
CC[C@]1(c2cccc(Cc3ncccn3)c2)C2=C(CC(C)(C)CC2=O)Nc2n[nH]cc21 [Compound 947499]	–	–	–	–	IC50 [1, 9]: > 5000 nM; IC50 [1, 5]: > 5000 nM; IC50 [2, 10]: 1000 to 5000 nM; IC50 [2, 6]: > 5000 nM
COc1ccc(F)c(S(=O)(=O)N2CCC3(CC2)C2=C(CC(C)(C)CC2=O)Nc2n[nH]cc23)c1 [Compound 945665]	–	–	–	–	IC50 [1, 9]: ≤ 100 nM; IC50 [2, 10]: ≤ 100 nM
CCC1(c2cccc(-c3ccnc(C(C)O)c3)c2)C2=C(CC(C)(C)CC2=O)Nc2n[nH]cc21 (centres unmarked) [Compound 944029]	–	–	–	–	IC50 [1, 9]: 100 to 1000 nM; IC50 [2, 10]: ≤ 100 nM
CCC1(c2cccc(N3CCCC3C)c2)C2=C(CC(C)(C)CC2=O)Nc2n[nH]cc21 (centres unmarked) [Compound 885204]	100 to 1000 nM	≤ 100 nM	–	–	–
CC1(C)CC(=O)C2=C(C1)Nc1n[nH]cc1C21COC2(CN(C(=O)C(C)(C)C)C2)C1 (centres unmarked) [Compound 947303]	–	–	–	–	IC50 [1, 11]: ≤ 100 nM; IC50 [2, 12]: ≤ 100 nM
CC1(C)CC(=O)C2=C(C1)Nc1n[nH]cc1C21COC1 [Compound 889569]	–	–	–	–	IC50 [1, 9]: 100 to 1000 nM; IC50 [2, 10]: 100 to 1000 nM
CC[C@@]1(c2cccc(-c3ccnnc3)c2)C2=C(CC(C)(C)CC2=O)Nc2n[nH]cc21 [Compound 929443]	> 5000 nM	> 5000 nM	–	–	–
CCC1(c2cccc(C(F)(F)F)c2)C2=C(CNC2=O)Nc2n[nH]cc21 (centres unmarked) [Compound 913156]	–	–	–	–	IC50 [1, 9]: > 5000 nM; IC50 [2, 10]: 100 to 1000 nM
C[C@@H]1CC(=O)C2=C(C1)Nc1n[nH]cc1[C@@]2(C)c1ccccc1 [Compound 789333]	–	–	> 5000 nM	> 5000 nM	–

Compound	IC50 [1, 3]	IC50 [2, 4]	IC50 [1, 7]	IC50 [2, 8]	also measured
CC1(C(F)(F)F)CC(=O)C2=C(C1)Nc1n[nH]cc1C21CCOCC1 (centres unmarked) [Compound 901458]	–	–	–	–	IC50 [1, 9]: 100 to 1000 nM; IC50 [2, 10]: 100 to 1000 nM
CCC1(c2cccc(N(CCOC)C(C)=O)c2)C2=C(CC(C)(C)CC2=O)Nc2n[nH]cc21 (centres unmarked) [Compound 893306]	≤ 100 nM	≤ 100 nM	–	–	–
CCC1(c2cccc(-c3ccncc3)c2)C2=C(CC(C)(C)CC2=O)Nc2n[nH]cc21 (centres unmarked) [Compound 801413]	–	–	≤ 100 nM	≤ 100 nM	IC50 [1, 5]: 1000 to 5000 nM; IC50 [2, 6]: 100 to 1000 nM
CCC1(c2cccc(CN3CCCCC3)c2)C2=C(CC(C)(C)CC2=O)Nc2n[nH]cc21 (centres unmarked) [Compound 819560]	–	–	> 5000 nM	1000 to 5000 nM	–
CC1(C)CC(=O)C2=C(C1)Nc1n[nH]cc1C21CCc2c(Cl)cccc21 (centres unmarked) [Compound 816795]	–	–	100 to 1000 nM	≤ 100 nM	–
CC[C@@]1(c2cccc(C(F)(F)F)c2)C2=C(Nc3n[nH]cc31)[C@H](C)CN(C)C2=O [Compound 883980]	–	–	–	–	IC50 [1, 11]: ≤ 100 nM; IC50 [1, 5]: 1000 to 5000 nM; IC50 [2, 12]: ≤ 100 nM; IC50 [2, 6]: 100 to 1000 nM
CCC1(c2cccc(-c3ccncc3C)c2)C2=C(CC3(CCCC3)NC2=O)Nc2n[nH]cc21 (centres unmarked) [Compound 948021]	–	–	> 5000 nM	100 to 1000 nM	–
CC1(C)CC(=O)C2=C(C1)Nc1n[nH]cc1C21CN(Cc2cnc3ccccn23)C1 [Compound 932654]	> 5000 nM	> 5000 nM	–	–	–
CCC1(c2cccc(-c3cnn(C)c3)c2)C2=C(CC(C)(C)NC2=O)Nc2n[nH]c(C)c21 (centres unmarked) [Compound 945614]	–	–	–	–	IC50 [1, 11]: 100 to 1000 nM; IC50 [1, 5]: 1000 to 5000 nM; IC50 [2, 12]: ≤ 100 nM; IC50 [2, 6]: 100 to 1000 nM
CCC1(c2cccc(N(C)c3ccc(C)nc3)c2)C2=C(CC(C)(C)CC2=O)Nc2n[nH]cc21 (centres unmarked) [Compound 918272]	100 to 1000 nM	100 to 1000 nM	–	–	–
CC[C@]1(c2cccc(-c3ccnc(C)c3OC)c2)C2=C(CC(C)(C)CC2=O)Nc2n[nH]cc21 [Compound 945997]	–	–	–	–	IC50 [1, 9]: ≤ 100 nM; IC50 [1, 5]: 1000 to 5000 nM; IC50 [2, 10]: ≤ 100 nM; IC50 [2, 6]: 100 to 1000 nM
CCC1(c2cccc(N3CC(C)(C)C3C(C)C)c2)C2=C(CC(C)(C)CC2=O)Nc2n[nH]cc21 (centres unmarked) [Compound 902969]	1000 to 5000 nM	100 to 1000 nM	–	–	–
CC[C@]1(c2cccc([C@H]3CCOC3)c2)C2=C(CC(C)(C)CC2=O)Nc2n[nH]cc21 [Compound 889558]	100 to 1000 nM	≤ 100 nM	–	–	–
CC1(C)CC(=O)C2=C(C1)Nc1n[nH]cc1C2(C)c1cc(Cl)ccc1F (centres unmarked) [Compound 810377]	–	–	1000 to 5000 nM	100 to 1000 nM	–
CCC1(c2cccc(C(C)C)c2)C2=C(CC(C)(C)CC2=O)Nc2n[nH]cc21 (centres unmarked) [Compound 801322]	–	–	100 to 1000 nM	≤ 100 nM	–
CC[C@]1(c2cccc(N3C[C@H](C)[C@@H](C)C3)c2)C2=C(CC(C)(C)CC2=O)Nc2n[nH]cc21 [Compound 924520]	> 5000 nM	> 5000 nM	–	–	–
CCC1(c2cccc(N(C)c3cccc(C(F)(F)F)n3)c2)C2=C(CC(C)(C)CC2=O)Nc2n[nH]cc21 (centres unmarked) [Compound 913122]	100 to 1000 nM	100 to 1000 nM	–	–	–
Cc1cccc(S(=O)(=O)N2CC[C@]3(C2)C2=C(CC(C)(C)CC2=O)Nc2n[nH]cc23)c1 [Compound 943489]	–	–	–	–	IC50 [1, 9]: ≤ 100 nM; IC50 [2, 10]: ≤ 100 nM
CCc1ncc(S(=O)(=O)N2CCC3(CC2)C2=C(CC(C)(C)NC2=O)Nc2n[nH]cc23)s1 [Compound 947837]	–	–	≤ 100 nM	≤ 100 nM	IC50 [1, 11]: ≤ 100 nM; IC50 [2, 12]: ≤ 100 nM
CC[C@]1(c2cccc(N(C)c3ncccn3)c2)C2=C(CC(C)(C)NC2=O)Nc2n[nH]cc21 [Compound 949179]	–	–	> 5000 nM	100 to 1000 nM	–
CC[C@@]1(c2cccc(S(=O)(=O)CC3CC3)c2)C2=C(CC(C)(C)CC2=O)Nc2n[nH]cc21 [Compound 917151]	> 5000 nM	1000 to 5000 nM	–	–	–

From US20250313563A1, “GLYCOGEN SYNTHASE KINASE 3 INHIBITORS AND USES THEREOF” (The Broad Institute, Inc., priority 2022, published 2025)
